Data on 1 compound can be found in PMC9814781, “Structure-based design of a dual-warhead covalent inhibitor of FGFR4” (Communications Chemistry, 2022).

The test system of one data set is Huh7. Kind of data set: Huh7 viability assay. The data set is classed as cell-based. The note with it: Homo sapiens, Huh-7; Huh7, FGF19-overexpressing HCC cell line, 72 h, CCK-8. On the procedure: Hep3B (ThermoFisher Scientific, 11965, America) and Huh7 (ThermoFisher Scientific, 11095, America) cells were seeded into 96-well plates at 4000 cells/well and 2000 cells/well, respectively. […] Cell viabilities were measured by a CCK-8 kit (Vazyme, China). The IC50 values were calculated using GraphPad Prism software.

A short description of the next data set: GSH reaction assay. The data set is classed as in vitro ADME. The note with it: GSH 5 mM, inhibitor 1 mM, 37°C, 10–60 min. The method, then:
GSH (5 mM) and inhibitor (1 mM) or DMSO control were mixed in equal volumes and reacted at 37°C for 10 min, 20 min, 30 min, 40 min, 50 min, and 60 min. The remaining GSH was detected with DTNB (Beyotime, China), and the absorption light was measured at 412 nm on a plate reader (Perkin-Elmer). Data were determined using the time (min) versus % of control in Origin 2018 software.

For another data set, the target named is FMS (CSF1R) (Homo sapiens, UniProt P07333). In words: Kinase selectivity profiling.
For the next data set, the target named is TTK (Homo sapiens, UniProt P33981). Kind of data set: Kinase selectivity profiling.
Another data set concerns the target ACK (Homo sapiens, UniProt Q07912). In words: Kinase selectivity profiling.
The target in the next data set is Erk1 (Homo sapiens, UniProt P27361). In words: Kinase selectivity profiling.
A further data set concerns the target SRC (Homo sapiens, UniProt P12931). Kind of data set: Kinase selectivity profiling.
In a further data set the target is EPHA7 (Homo sapiens, UniProt Q15375). In words: Kinase selectivity profiling.
A further data set deals with HIPK4 (Homo sapiens, UniProt Q8NE63). In words: Kinase selectivity profiling.
In another data set the target is TYRO3 (Homo sapiens, UniProt Q06418). Kind of data set: Kinase selectivity profiling.
For another data set, the target named is ALK4 (Homo sapiens, UniProt P36896). Kind of data set: Kinase selectivity profiling.
Another data set addresses ROS1 (Homo sapiens, UniProt P08922). Kind of data set: Kinase selectivity profiling.
The next data set deals with EPHB4 (Homo sapiens, UniProt P54760). In words: Kinase selectivity profiling.
In the next data set the target is CDK5/p25NCK (Homo sapiens, UniProt Q00535). Kind of data set: Kinase selectivity profiling.
Another data set concerns the target FES (Homo sapiens, UniProt P07332). Kind of data set: Kinase selectivity profiling.
The target of the next data set is FYNa (Homo sapiens, UniProt P06241). Kind of data set: Kinase selectivity profiling.
The target in the next data set is FGFR3 (Homo sapiens, UniProt P22607). Kind of data set: Kinase inhibition assay (ADP-Glo). In kind it is biochemical. Set-up: FGFR3 (residues 450–758); 6xHis + PreScission site (N, cleaved yes); made in house; host or cells: Escherichia coli Rosseta. The method, then:
Wild-type FGFRs and mutant FGFRs were prepared as previously described[25]–[27]. In brief, the kinase domains of human FGFR1 (residues 456–765), FGFR2 (residues 453–770), FGFR3 (residues 450–758), and FGFR4 (residues 445–753) were cloned into a modified pET28a expression vector and then transfected into Escherichia coli Rosseta cells. The N-terminal of the recombinant proteins were contained a 6xHis tag followed by a PreScission cleavage site for FGFR1, FGFR2, FGFR3, and FGFR4. Site-directed mutagenesis of FGFR4 was generated according to the ClonExpress II One Step Cloning Kit (Vazyme) using the pET28a-FGFR4 plasmid as the template. These mutants were confirmed by DNA sequencing (Tsingke, Changsha, China). For crystallization experiments, the wild-type FGFR4 plasmid was co-expressed with untagged YOPH to obtain non-phosphorylated proteins. The proteins were first purified by Ni-NTA affinity chromatography. […]
All kinase inhibition assays were performed with optimized kinase assay buffer consisting of 40 mM Tris-HCl pH 7.5, 20 mM MgCl2, 20 mM NaCl, 0.1 mg/mL BSA, 1 mM TCEP, and 4% DMSO. […] Fluorescence was measured on a multimode plate reader (Perkin-Elmer) using a chemiluminescence program after the addition of the detection reagent. IC50 values were determined using a three-parameter log [Inhibitor] versus response model in GraphPad Prism software.

Chain of FYNa (P06241 whole entry, the tested form may be a part): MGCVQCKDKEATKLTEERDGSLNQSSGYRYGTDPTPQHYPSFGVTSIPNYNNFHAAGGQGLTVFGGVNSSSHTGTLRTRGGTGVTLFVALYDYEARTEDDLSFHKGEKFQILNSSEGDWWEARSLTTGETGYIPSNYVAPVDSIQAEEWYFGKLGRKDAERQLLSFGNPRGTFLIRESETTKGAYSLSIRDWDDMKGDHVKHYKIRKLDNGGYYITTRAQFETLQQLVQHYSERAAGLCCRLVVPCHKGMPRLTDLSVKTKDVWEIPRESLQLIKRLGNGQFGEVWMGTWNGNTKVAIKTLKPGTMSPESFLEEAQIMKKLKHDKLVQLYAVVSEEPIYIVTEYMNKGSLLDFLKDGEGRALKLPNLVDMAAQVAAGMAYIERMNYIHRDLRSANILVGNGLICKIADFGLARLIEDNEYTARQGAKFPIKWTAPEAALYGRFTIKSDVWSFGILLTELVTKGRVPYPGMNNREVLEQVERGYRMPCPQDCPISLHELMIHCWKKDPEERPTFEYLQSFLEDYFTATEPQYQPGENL
Chain of ROS1 (P08922 28-2347): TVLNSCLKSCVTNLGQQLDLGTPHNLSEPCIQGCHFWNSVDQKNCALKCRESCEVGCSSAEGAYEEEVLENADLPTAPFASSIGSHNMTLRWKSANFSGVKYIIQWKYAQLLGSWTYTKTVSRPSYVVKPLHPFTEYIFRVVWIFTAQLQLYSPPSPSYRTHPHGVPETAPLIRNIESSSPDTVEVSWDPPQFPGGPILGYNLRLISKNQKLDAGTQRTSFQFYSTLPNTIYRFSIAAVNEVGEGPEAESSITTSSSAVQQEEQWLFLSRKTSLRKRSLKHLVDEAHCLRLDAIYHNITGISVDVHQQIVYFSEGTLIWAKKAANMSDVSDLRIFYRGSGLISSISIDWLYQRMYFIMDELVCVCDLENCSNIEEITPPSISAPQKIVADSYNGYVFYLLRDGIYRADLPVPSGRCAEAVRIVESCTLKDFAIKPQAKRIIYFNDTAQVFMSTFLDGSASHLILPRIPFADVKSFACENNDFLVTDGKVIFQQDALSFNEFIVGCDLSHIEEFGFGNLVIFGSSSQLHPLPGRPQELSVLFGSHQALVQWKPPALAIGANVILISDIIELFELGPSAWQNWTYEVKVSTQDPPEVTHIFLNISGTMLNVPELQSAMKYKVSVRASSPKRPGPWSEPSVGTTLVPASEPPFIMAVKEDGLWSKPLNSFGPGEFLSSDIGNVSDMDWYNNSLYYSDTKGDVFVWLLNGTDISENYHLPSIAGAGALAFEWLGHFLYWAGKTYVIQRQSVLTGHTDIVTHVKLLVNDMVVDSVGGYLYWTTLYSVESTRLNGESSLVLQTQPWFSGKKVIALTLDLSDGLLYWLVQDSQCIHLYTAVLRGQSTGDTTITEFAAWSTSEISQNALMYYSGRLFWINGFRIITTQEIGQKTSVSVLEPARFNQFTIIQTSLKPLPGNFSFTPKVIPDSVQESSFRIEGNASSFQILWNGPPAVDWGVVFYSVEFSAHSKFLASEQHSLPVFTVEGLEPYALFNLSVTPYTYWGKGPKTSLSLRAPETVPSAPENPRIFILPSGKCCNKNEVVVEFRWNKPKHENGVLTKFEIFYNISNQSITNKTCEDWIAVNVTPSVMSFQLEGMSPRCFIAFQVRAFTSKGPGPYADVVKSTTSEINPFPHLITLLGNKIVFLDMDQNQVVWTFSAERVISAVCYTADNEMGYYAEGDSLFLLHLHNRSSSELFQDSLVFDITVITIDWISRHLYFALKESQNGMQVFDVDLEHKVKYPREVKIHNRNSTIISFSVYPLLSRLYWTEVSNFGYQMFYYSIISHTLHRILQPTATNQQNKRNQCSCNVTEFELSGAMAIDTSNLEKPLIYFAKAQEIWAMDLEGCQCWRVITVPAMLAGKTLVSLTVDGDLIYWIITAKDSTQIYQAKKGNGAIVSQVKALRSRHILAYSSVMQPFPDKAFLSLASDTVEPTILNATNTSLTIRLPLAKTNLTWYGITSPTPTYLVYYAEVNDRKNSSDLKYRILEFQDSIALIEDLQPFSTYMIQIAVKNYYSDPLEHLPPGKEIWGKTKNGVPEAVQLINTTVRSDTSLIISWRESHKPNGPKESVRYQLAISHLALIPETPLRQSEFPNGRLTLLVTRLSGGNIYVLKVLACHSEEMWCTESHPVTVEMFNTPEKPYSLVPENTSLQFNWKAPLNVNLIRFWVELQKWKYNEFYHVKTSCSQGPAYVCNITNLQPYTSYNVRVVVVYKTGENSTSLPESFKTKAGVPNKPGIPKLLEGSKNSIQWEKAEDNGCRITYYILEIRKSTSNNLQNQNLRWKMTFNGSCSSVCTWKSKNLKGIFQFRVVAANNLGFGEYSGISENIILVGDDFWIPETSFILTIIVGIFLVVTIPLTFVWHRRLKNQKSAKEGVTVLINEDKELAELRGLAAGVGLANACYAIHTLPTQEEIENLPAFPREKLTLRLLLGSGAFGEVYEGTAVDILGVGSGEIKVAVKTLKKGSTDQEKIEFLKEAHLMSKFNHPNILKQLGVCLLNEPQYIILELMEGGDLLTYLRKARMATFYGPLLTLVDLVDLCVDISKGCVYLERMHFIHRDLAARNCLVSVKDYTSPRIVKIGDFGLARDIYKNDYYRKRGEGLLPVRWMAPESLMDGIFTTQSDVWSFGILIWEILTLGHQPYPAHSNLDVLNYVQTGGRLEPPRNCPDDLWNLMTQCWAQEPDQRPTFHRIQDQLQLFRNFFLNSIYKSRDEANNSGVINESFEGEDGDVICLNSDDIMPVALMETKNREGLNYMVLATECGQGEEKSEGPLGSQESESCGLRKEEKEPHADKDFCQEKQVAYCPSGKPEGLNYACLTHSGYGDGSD
Chain of ACK (Q07912 whole entry): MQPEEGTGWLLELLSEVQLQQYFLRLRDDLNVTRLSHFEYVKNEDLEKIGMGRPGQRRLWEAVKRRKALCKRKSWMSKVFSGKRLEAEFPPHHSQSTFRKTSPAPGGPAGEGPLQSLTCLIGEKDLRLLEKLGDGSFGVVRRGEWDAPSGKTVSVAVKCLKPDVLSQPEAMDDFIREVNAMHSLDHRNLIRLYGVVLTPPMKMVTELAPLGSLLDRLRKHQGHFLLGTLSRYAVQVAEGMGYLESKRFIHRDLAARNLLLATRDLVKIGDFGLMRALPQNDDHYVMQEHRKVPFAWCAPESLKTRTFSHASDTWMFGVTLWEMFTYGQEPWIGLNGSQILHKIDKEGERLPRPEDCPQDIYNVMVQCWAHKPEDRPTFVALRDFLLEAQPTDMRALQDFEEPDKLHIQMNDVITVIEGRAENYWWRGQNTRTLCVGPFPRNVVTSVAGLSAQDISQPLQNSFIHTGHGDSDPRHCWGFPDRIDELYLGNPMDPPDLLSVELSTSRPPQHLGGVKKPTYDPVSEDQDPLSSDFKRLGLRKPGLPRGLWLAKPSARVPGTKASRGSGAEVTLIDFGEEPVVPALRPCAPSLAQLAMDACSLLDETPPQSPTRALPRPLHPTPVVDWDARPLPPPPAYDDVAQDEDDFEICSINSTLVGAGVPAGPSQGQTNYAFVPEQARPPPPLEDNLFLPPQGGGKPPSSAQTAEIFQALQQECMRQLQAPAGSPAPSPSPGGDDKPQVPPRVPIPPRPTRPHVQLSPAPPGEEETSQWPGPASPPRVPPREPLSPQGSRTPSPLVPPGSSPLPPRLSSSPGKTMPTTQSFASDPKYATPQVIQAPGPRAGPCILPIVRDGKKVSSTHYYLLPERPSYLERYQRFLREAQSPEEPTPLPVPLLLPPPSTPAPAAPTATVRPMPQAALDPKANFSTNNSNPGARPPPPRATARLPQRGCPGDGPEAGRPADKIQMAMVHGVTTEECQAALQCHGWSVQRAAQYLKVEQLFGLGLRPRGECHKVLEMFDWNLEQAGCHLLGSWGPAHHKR
Chain of FMS (CSF1R) (P07333 20-972): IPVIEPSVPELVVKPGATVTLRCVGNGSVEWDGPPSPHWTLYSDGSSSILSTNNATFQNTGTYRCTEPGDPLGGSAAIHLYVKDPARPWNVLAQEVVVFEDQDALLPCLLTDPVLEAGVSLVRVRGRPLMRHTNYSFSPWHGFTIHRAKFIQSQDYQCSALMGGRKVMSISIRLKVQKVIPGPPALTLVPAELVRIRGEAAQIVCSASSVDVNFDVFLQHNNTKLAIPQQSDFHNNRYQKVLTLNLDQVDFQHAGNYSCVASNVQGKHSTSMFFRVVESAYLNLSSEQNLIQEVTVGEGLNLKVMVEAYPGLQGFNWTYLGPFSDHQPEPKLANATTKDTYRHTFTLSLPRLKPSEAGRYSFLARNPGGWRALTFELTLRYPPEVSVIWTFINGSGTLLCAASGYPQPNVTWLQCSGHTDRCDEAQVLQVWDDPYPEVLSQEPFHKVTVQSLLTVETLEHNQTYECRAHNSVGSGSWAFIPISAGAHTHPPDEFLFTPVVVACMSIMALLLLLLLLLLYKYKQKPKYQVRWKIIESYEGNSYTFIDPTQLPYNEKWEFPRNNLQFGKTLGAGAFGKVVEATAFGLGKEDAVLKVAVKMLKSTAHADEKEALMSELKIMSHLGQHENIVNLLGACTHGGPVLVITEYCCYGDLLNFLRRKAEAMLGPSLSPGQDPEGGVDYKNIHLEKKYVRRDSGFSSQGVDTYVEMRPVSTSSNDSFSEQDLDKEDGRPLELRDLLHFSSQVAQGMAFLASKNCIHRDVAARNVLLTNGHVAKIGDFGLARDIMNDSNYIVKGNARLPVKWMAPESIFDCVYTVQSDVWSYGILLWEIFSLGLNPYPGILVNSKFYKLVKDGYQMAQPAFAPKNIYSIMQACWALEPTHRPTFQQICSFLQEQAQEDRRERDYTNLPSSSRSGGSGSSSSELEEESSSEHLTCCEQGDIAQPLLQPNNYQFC

As for `C=CC(=O)Nc1ccccc1Nc1ncc2c(n1)N(CCCN1CCN(C(=O)C=C)CC1)C(=O)N(c1cc(OC)cc(OC)c1)C2` [CXF-009], the figures for the IC50 in the data set on Huh7 and on FGFR3 were 727 nM and 977 nM, respectively. Further, the “GSH reactivity (remaining GSH, DTNB)” value in the data set “GSH reaction assay” is recorded as “slightly more reactive to GSH than PRN1371”. Further, the inhibition – broadly, the change of the read-out against control, counted positive when it falls – at 1 µM was 15.4% on FMS (CSF1R); 6.62% against TTK; 4.18% against ACK; 3.99% against Erk1; 3.48% against SRC; 2.74% against EPHA7. For the same compound, the inhibition at 1 µM against HIPK4 was 2.32%; against TYRO3, 0.8%; on ALK4, 0.23%; at ROS1, -0.51%; against EPHB4 it was -1.86%; at CDK5/p25NCK, -5.5%. Also, the inhibition at 1 µM was -7.81% against FES and -9.44% on FYNa.
